Results as given in US9718790B2, “Triazine derivative and pharmaceutical composition having an analgesic activity comprising the same” (SHIONOGI & CO., LTD., priority 2010, dated 2017).
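Note: stimulus was 50 nM ATP with fluorescence followed for 3 min, and the response per well was peak post-ATP fluorescence divided by the reading at measurement start.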

What follows are compounds tested against human P2X3 receptor (Homo sapiens (Human), UniProt P56373) (assay: Evaluation of human P2X3 receptor inhibitory activity (Fluo-3 calcium fluorescence, FDSS 3000, ATP stimulation)). Details: C6BU-1 cells stably expressing human P2X3 receptor.
Chain of human P2X3 receptor (P56373 whole entry): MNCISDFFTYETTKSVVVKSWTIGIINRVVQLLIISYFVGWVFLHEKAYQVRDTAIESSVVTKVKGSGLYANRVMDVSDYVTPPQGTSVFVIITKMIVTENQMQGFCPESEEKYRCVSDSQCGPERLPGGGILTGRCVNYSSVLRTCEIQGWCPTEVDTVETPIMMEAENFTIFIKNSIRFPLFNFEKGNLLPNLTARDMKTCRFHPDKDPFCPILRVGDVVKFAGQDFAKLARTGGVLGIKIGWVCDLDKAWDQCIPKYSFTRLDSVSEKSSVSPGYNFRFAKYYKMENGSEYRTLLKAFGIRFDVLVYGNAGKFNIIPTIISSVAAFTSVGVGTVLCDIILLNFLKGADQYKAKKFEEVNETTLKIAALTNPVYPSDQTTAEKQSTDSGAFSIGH
Format: cell-based
In the case of `CCCOc1ccc(/N=c2\[nH]c(=O)n([C@H](C)[C@H](C)C(=O)OC)c(=O)n2Cc2ccc(C)cc2)cc1` [Compound I-1313], the IC50 is reported as 62 nM.
For `COC(=O)[C@@H](C)[C@@H](C)n1c(=O)[nH]/c(=N\c2ccc(OCC3CC3)cc2)n(Cc2ccc(C)cc2)c1=O` [Compound I-1314], the IC50 was 59 nM.
`COC(=O)[C@@H](C)[C@@H](C)n1c(=O)[nH]/c(=N\c2ccc(OC(C)C)c(F)c2)n(Cc2ccc(Cl)cc2)c1=O` [Compound I-1315] was tested, and the IC50 was 40 nM.
With `COC(=O)[C@@H](C)[C@@H](C)n1c(=O)[nH]/c(=N\c2ccc(OCC3CC3)cc2)n(Cc2ccc(Cl)cc2)c1=O` [Compound I-1316] the IC50 was 54 nM.
In the case of `COC(=O)[C@@H](C)[C@@H](C)n1c(=O)[nH]/c(=N\c2cccc(C(F)(F)F)c2)n(Cc2ccc(Cl)cc2)c1=O` [Compound I-1317], the IC50 is reported as 105 nM.
With `COC(=O)[C@@H](C)Cn1c(=O)[nH]/c(=N\c2ccc3ncccc3c2)n(Cc2ccc(Cl)cc2)c1=O` [Compound I-1318] the IC50 was 544 nM.
`COC(=O)[C@@H](C)Cn1c(=O)[nH]/c(=N\c2ccc3nc(C)c(C)nc3c2)n(Cc2ccc(Cl)cc2)c1=O` [Compound I-1320] showed an IC50 of 365 nM.
Compound `COC(=O)[C@@H](C)Cn1c(=O)[nH]/c(=N\c2ccc3nc(C)sc3c2)n(Cc2ccc(Cl)cc2)c1=O` [Compound I-1321] has an IC50 of 7 nM.
Work on `COC(=O)[C@H](C)[C@H](C)n1c(=O)[nH]/c(=N\c2ccc3nc(C)ccc3c2)n(Cc2ccc(Cl)cc2)c1=O` [Compound I-1322] yielded an IC50 of 20 nM.
`COC(=O)[C@H](C)[C@H](C)n1c(=O)[nH]/c(=N\c2ccc3oc(C)cc3c2)n(Cc2ccc(Cl)cc2)c1=O` [Compound I-1323] gave an IC50 of 33 nM.
For `COC(=O)[C@H](C)[C@H](C)n1c(=O)[nH]/c(=N\c2ccc3nc(C)ccc3c2)n(Cc2ccc(C)cc2)c1=O` [Compound I-1324], the IC50 was 9 nM.
With `COC(=O)[C@H](C)[C@H](C)n1c(=O)[nH]/c(=N\c2ccc3oc(C)cc3c2)n(Cc2ccc(C)cc2)c1=O` [Compound I-1325] the IC50 was 28 nM.
For `CCc1nc2ccc(/N=c3\[nH]c(=O)n(C[C@H](C)C(=O)OC)c(=O)n3Cc3ccc(Cl)cc3)cc2o1` [Compound I-1326], the IC50 was 217 nM.
For `CCCc1nc2ccc(/N=c3\[nH]c(=O)n(C[C@H](C)C(=O)OC)c(=O)n3Cc3ccc(Cl)cc3)cc2o1` [Compound I-1327], the IC50 was 73 nM.
`CCOC(=O)CCn1c(=O)[nH]/c(=N\c2ccc(OC3CCC3)c(Cl)c2)n(Cc2ccc(C)cc2)c1=O` [Compound I-1328] was tested, and the IC50 was 12 nM.
`COC(=O)[C@H](C)[C@H](C)n1c(=O)[nH]/c(=N\c2ccc(OCC(C)C)cc2)n(Cc2ccc(Cl)cc2)c1=O` [Compound I-1329] gave an IC50 of 49 nM.
Work on `CCOC(=O)CCn1c(=O)[nH]/c(=N\c2ccc(OC3CCC3)c(Cl)c2)n(Cc2ccc(Cl)cc2)c1=O` [Compound I-1330] yielded an IC50 of 9 nM.
`COC(=O)[C@H](C)[C@H](C)n1c(=O)[nH]/c(=N\c2ccc(OCC(C)C)cc2)n(Cc2ccc(C)cc2)c1=O` [Compound I-1331] showed an IC50 of 56 nM.
With `Cc1ccc(Cn2c(=O)n(CCC(=O)O)c(=O)[nH]/c2=N\c2ccc(OC3CCC3)c(Cl)c2)cc1` [Compound I-1332] the IC50 was 54 nM.
With `O=C(O)CCn1c(=O)[nH]/c(=N\c2ccc(OC3CCC3)c(Cl)c2)n(Cc2ccc(Cl)cc2)c1=O` [Compound I-1333] the IC50 was 52 nM.
In the case of `Cc1ccc(Cn2c(=O)n([C@@H](C)[C@@H](C)C(=O)O)c(=O)[nH]/c2=N\c2ccc(OC(C)C)c(Br)c2)cc1` [Compound I-1334], the IC50 is reported as 11 nM.
`Cc1ccc(Cn2c(=O)n([C@@H](C)[C@@H](C)C(=O)O)c(=O)[nH]/c2=N\c2cccc(C(F)(F)F)c2)cc1` [Compound I-1335] was tested, and the IC50 was 30 nM.
`Cc1ccc(Cn2c(=O)n([C@H](C)[C@H](C)C(=O)O)c(=O)[nH]/c2=N\c2ccc(OC(C)C)cc2)cc1` [Compound I-1336] gave an IC50 of 71 nM.
`Cc1ccc(Cn2c(=O)n([C@H](C)[C@H](C)C(=O)O)c(=O)[nH]/c2=N\c2ccc(OC(C)C)c(Cl)c2)cc1` [Compound I-1337] showed an IC50 of 14 nM.
`Cc1ccc(Cn2c(=O)n([C@H](C)[C@H](C)C(=O)O)c(=O)[nH]/c2=N\c2ccc(OC(C)C)c(F)c2)cc1` [Compound I-1338] showed an IC50 of 36 nM.
For `Cc1ccc(Cn2c(=O)n([C@H](C)[C@H](C)C(=O)O)c(=O)[nH]/c2=N\c2ccc(OC(C)C)c(C)c2)cc1` [Compound I-1339], the IC50 was 30 nM.
With `CCCOc1ccc(/N=c2\[nH]c(=O)n([C@H](C)[C@H](C)C(=O)O)c(=O)n2Cc2ccc(C)cc2)cc1` [Compound I-1340] the IC50 was 57 nM.
`Cc1ccc(Cn2c(=O)n([C@H](C)[C@H](C)C(=O)O)c(=O)[nH]/c2=N\c2ccc(OCC3CC3)cc2)cc1` [Compound I-1341] gave an IC50 of 36 nM.
In the case of `CC(C)Oc1ccc(/N=c2\[nH]c(=O)n([C@H](C)[C@H](C)C(=O)O)c(=O)n2Cc2ccc(Cl)cc2)cc1Cl` [Compound I-1342], the IC50 is reported as 10 nM.
`CC(C)Oc1ccc(/N=c2\[nH]c(=O)n([C@H](C)[C@H](C)C(=O)O)c(=O)n2Cc2ccc(Cl)cc2)cc1F` [Compound I-1343] was tested, and the IC50 was 35 nM.
In the case of `C[C@H](C(=O)O)[C@@H](C)n1c(=O)[nH]/c(=N\c2ccc(OCC3CC3)cc2)n(Cc2ccc(Cl)cc2)c1=O` [Compound I-1344], the IC50 is reported as 33 nM.
Compound `C[C@H](C(=O)O)[C@@H](C)n1c(=O)[nH]/c(=N\c2cccc(C(F)(F)F)c2)n(Cc2ccc(Cl)cc2)c1=O` [Compound I-1345] has an IC50 of 69 nM.
Work on `C[C@@H](Cn1c(=O)[nH]/c(=N\c2ccc3ncccc3c2)n(Cc2ccc(Cl)cc2)c1=O)C(=O)O` [Compound I-1346] yielded an IC50 of 812 nM.
For `Cc1nc2ccc(/N=c3\[nH]c(=O)n(C[C@H](C)C(=O)O)c(=O)n3Cc3ccc(Cl)cc3)cc2nc1C` [Compound I-1348], the IC50 was 918 nM.
For `Cc1nc2ccc(/N=c3\[nH]c(=O)n(C[C@H](C)C(=O)O)c(=O)n3Cc3ccc(Cl)cc3)cc2s1` [Compound I-1349], the IC50 was 15 nM.
`Cc1ccc2cc(/N=c3\[nH]c(=O)n([C@@H](C)[C@@H](C)C(=O)O)c(=O)n3Cc3ccc(Cl)cc3)ccc2n1` [Compound I-1350] was tested, and the IC50 was 28 nM.
`Cc1cc2cc(/N=c3\[nH]c(=O)n([C@@H](C)[C@@H](C)C(=O)O)c(=O)n3Cc3ccc(Cl)cc3)ccc2o1` [Compound I-1351] gave an IC50 of 41 nM.
`Cc1ccc(Cn2c(=O)n([C@@H](C)[C@@H](C)C(=O)O)c(=O)[nH]/c2=N\c2ccc3nc(C)ccc3c2)cc1` [Compound I-1352] gave an IC50 of 26 nM.
Work on `Cc1ccc(Cn2c(=O)n([C@@H](C)[C@@H](C)C(=O)O)c(=O)[nH]/c2=N\c2ccc3oc(C)cc3c2)cc1` [Compound I-1353] yielded an IC50 of 41 nM.
For `CCCc1ccc(/N=c2\[nH]c(=O)n(C[C@H](C)C(=O)O)c(=O)n2Cc2ccc(Cl)cc2)cc1OC` [Compound I-1354], the IC50 was 139 nM.
With `COc1cc(/N=c2\[nH]c(=O)n(CCC(=O)O)c(=O)n2Cc2ccc(Cl)cc2)ccc1CC(C)C` [Compound I-1355] the IC50 was 177 nM.
For `Cc1ccc(Cn2c(=O)n(CCC(=O)O)c(=O)[nH]/c2=N\c2ccc(Oc3ccc(C)nc3)cc2)cc1` [Compound I-1356], the IC50 was 48 nM.
`Cc1ccc(Oc2ccc(/N=c3\[nH]c(=O)n(CCC(=O)O)c(=O)n3Cc3ccc(Cl)cc3)cc2)cn1` [Compound I-1357] was tested, and the IC50 was 25 nM.
In the case of `Cc1ccc(Oc2ccc(/N=c3\[nH]c(=O)n(CC(C)(C)C(=O)O)c(=O)n3Cc3ccc(Cl)cc3)cc2)cn1` [Compound I-1358], the IC50 is reported as 9 nM.
`Cc1ccc(Cn2c(=O)n(C[C@H](C)C(=O)O)c(=O)[nH]/c2=N\c2ccc(CC(C)C)nc2)cc1` [Compound I-1359] gave an IC50 of 724 nM.
In the case of `CCCc1ccc(/N=c2\[nH]c(=O)n(C[C@H](C)C(=O)OC)c(=O)n2Cc2ccc(C)cc2)cc1OC` [Compound I-1360], the IC50 is reported as 32 nM.
For `CCOC(=O)CCn1c(=O)[nH]/c(=N\c2ccc(CC(C)C)c(OC)c2)n(Cc2ccc(C)cc2)c1=O` [Compound I-1361], the IC50 was 15 nM.
Compound `COc1cc(/N=c2\[nH]c(=O)n(CCC(=O)O)c(=O)n2Cc2ccc(C)cc2)ccc1CC(C)C` [Compound I-1362] has an IC50 of 54 nM.
Work on `COC(=O)[C@H](C)[C@H](C)n1c(=O)[nH]/c(=N\c2ccc(CC(C)C)c(OC)c2)n(Cc2ccc(Cl)cc2)c1=O` [Compound I-1363] yielded an IC50 of 56 nM.
In the case of `COC(=O)[C@H](C)[C@H](C)n1c(=O)[nH]/c(=N\c2ccc(CC(C)C)c(OC)c2)n(Cc2ccc(C)cc2)c1=O` [Compound I-1364], the IC50 is reported as 43 nM.
`CCCc1ccc(/N=c2\[nH]c(=O)n(C[C@H](C)C(=O)O)c(=O)n2Cc2ccc(C)cc2)cc1OC` [Compound I-1365] was tested, and the IC50 was 94 nM.
Work on `COc1cc(/N=c2\[nH]c(=O)n([C@@H](C)[C@@H](C)C(=O)O)c(=O)n2Cc2ccc(Cl)cc2)ccc1CC(C)C` [Compound I-1366] yielded an IC50 of 20 nM.
With `COc1cc(/N=c2\[nH]c(=O)n([C@@H](C)[C@@H](C)C(=O)O)c(=O)n2Cc2ccc(C)cc2)ccc1CC(C)C` [Compound I-1367] the IC50 was 14 nM.
With `COC(=O)CCCn1c(=O)[nH]/c(=N\c2ccc(Oc3ccc(C)nc3)cc2)n(Cc2ccc(Cl)cc2)c1=O` [Compound I-1368] the IC50 was 5 nM.
Compound `CCOC(=O)CCCn1c(=O)[nH]/c(=N\c2ccc(Oc3ccc(C)nc3)cc2)n(Cc2ccc(C)cc2)c1=O` [Compound I-1369] has an IC50 of 3 nM.
`COC(=O)[C@@H](C)Cn1c(=O)[nH]/c(=N\c2ccc(CC(C)C)c(Cl)c2)n(Cc2ccc(Cl)cc2)c1=O` [Compound I-1370] was tested, and the IC50 was 19 nM.
Work on `COC(=O)[C@@H](C)Cn1c(=O)[nH]/c(=N\c2ccc(CC(C)C)c(Cl)c2)n(Cc2ccc(C)cc2)c1=O` [Compound I-1371] yielded an IC50 of 9 nM.
Compound `CC(C)Cc1ccc(/N=c2\[nH]c(=O)n(C[C@H](C)C(=O)O)c(=O)n2Cc2ccc(Cl)cc2)cc1Cl` [Compound I-1372] has an IC50 of 5 nM.
In the case of `COC(=O)[C@H](C)[C@H](C)n1c(=O)[nH]/c(=N\c2ccc(Oc3ccc(C)nc3)cc2)n(Cc2ccc(Cl)cc2)c1=O` [Compound I-1375], the IC50 is reported as 5 nM.
`COC(=O)[C@@H](C)[C@@H](C)n1c(=O)[nH]/c(=N\c2ccc(Oc3ccc(C)nc3)cc2)n(Cc2ccc(Cl)cc2)c1=O` [Compound I-1376] was tested, and the IC50 was 15 nM.
Compound `COC(=O)[C@H](C)[C@H](C)n1c(=O)[nH]/c(=N\c2ccc(Oc3cccnc3)cc2)n(Cc2ccc(Cl)cc2)c1=O` [Compound I-1377] has an IC50 of 7 nM.
`COC(=O)[C@H](C)[C@H](C)n1c(=O)[nH]/c(=N\c2ccc(OC3CCC3)cc2)n(Cc2ccc(Cl)cc2)c1=O` [Compound I-1378] gave an IC50 of 12 nM.
